Source: patent US6399647B2, “Amide derivatives for antiangiogenic and/or antitumorigenic use” (Vanderbilt University, priority 1999, dated 2002)
Read-outs that look alike come from different tables or passages of the source.

How the values were obtained:
[1] = target: T1, ovine COX-1 (Ovis aries, UniProt P05979); assay: TLC assay, inhibition of purified ovine COX-1; type: biochemical; conditions: ovine COX-1 (44 nM), inhibitor 20 min, then 1-14C-AA (50 μM) at 37° C. for 30 sec, duplicate
T1 construct: COX-1 was purified from ram seminal vesicles obtained from Oxford Biomedical Research, Inc; tissue Oxford Biomedical Research, Inc. (Oxford, Michigan) (supplier of the tissue); host or cells: ram seminal vesicles
T1 sequence (P05979 25-600): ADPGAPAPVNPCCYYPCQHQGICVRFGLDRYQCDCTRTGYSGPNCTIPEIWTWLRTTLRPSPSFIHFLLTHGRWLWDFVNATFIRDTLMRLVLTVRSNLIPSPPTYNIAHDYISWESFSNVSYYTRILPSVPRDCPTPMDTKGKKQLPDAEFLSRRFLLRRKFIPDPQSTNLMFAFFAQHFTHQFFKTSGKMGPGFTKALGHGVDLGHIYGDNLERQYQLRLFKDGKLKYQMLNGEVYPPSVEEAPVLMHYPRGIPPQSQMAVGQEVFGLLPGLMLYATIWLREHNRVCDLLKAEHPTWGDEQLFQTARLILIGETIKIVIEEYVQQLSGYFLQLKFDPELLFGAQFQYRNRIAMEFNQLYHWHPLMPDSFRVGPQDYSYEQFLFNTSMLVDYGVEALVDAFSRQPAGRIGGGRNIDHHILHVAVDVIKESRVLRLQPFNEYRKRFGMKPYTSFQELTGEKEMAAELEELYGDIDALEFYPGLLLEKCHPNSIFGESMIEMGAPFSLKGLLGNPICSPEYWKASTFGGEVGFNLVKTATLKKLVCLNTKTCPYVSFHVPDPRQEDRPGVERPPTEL

[2] = test system: carrageenan-induced rat foot pad edema; assay: Rat foot pad edema model (carrageenan); type: in vivo; conditions: 2 mg/kg orally
Procedure: Rats were injected with carrageenan, which triggers a rapid edema (swelling) within 3 hours that can be quantitatively measured by volume displacement.
In these experiments, the carrageenan that was injected was in 0.1 mL of aqueous saline so that 0.1 mL volume increase was due to the injection alone.
More specifically, male Sprague-Dawley rats (150 g) received a subplantar injection of carrageenan (0.1 mL of a 1% suspension of carrageenan in sterile aqueous saline) into the right hind footpad while mildly anesthetized with methoxyflurane. […] The ipsilateral footpad volume (mL) was measured with a water displacement plethysmometer at time=3 hours post-injection and compared to the time=0 pre-injection paw volume for edema calculations.

[3] = target: T2, COX-2 (Homo sapiens, UniProt P35354); assay: TLC assay, inhibition of purified human COX-2; type: biochemical; parameters: made in house; host or cells: insect cells (baculovirus vectors)
T2 sequence (P35354 18-604): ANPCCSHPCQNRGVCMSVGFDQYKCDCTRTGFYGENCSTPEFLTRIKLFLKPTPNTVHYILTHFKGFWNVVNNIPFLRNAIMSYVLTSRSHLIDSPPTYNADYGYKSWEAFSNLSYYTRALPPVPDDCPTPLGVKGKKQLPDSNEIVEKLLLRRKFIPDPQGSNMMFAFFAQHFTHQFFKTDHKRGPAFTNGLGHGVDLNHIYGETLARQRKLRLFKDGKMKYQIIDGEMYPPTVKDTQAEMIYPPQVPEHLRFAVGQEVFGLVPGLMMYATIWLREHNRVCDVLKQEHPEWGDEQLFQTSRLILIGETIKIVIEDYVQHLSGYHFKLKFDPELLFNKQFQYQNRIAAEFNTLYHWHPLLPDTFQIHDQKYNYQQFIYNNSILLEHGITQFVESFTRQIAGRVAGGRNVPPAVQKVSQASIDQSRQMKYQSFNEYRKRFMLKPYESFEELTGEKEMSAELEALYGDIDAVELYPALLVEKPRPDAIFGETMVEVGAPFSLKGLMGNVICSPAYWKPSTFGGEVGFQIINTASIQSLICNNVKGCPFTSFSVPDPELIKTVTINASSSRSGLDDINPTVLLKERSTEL

[4] = test system: COX-1; conditions: background b24; cited from earlier work
[5] = test system: tumors; conditions: background b24; cited from earlier work
[6] = target: T2, COX-2; conditions: background b24; cited from earlier work
[7] = test system: HCA-7 (human colon adenocarcinoma, colony 29) cells; assay: Human tumor xenograft assay in nude mice; type: in vivo; conditions: HCA-7, 5 mg/kg intraperitoneally 3 times per week
Procedure: Tumor volume was determined by external measurement with an electronic caliper.

**Q.** Which IC50 [1] does the source give for `COc1ccc2c(c1)c(CC(=O)N(C)CCc1ccccc1)c(C)n2C(=O)c1ccc(Cl)cc1` [Compound 9, lndomethacin-N-methylphenethyl amide] here?
**A.** Its IC50 is over 66 µM.

**Q.** With `COc1ccc2c(c1)c(CC(=O)Nc1ccc(NC(C)=O)cc1)c(C)n2C(=O)c1ccc(Cl)cc1` [Compound 14, Indomethacin-N-(4-acetamidophenyl) amide] as the molecule, how does the “effect on swelling / inflammation (in words)” value [2] read?
**A.** Its value is “dramatic decrease in swelling”.

**Q.** Which “COX-2 inhibition (in words)” value [3] does the source give for `COc1ccc2c(c1)c(CC(=O)Nc1cccnc1)c(C)n2C(=O)c1ccc(Cl)cc1` [Compound 20, Indomethacin-N-(3-pyridyl) amide] here?
**A.** The value was “potent and selective COX-2 inhibition”.

**Q.** For `COc1ccc2c(c1)c(CC(=O)O)c(C)n2C(=O)c1ccc(Cl)cc1` [Indomethacin, indomethacin, reference compound], which “effect on swelling / inflammation (in words)” value [2] is on record?
**A.** The value was “comparable reduction in inflammation”.

**Q.** Which “more potent inhibitor against COX-1 than COX-2” value [4] does the source give for `CSc1ccc(/C=C2/C(C)=C(CC(=O)O)c3cc(F)ccc32)cc1` [sulindac sulfide] here?
**A.** Its value is 40 fold.

**Q.** What about the “inhibition of tumors (in words)” value [5] of the same molecule?
**A.** The value was “exhibits inhibition of tumors”.

**Q.** For `CC1=C(CC(=O)O)c2cc(F)ccc2/C1=C\c1ccc(S(C)(=O)=O)cc1` [sulindac sulfone], which “COX-2 inhibition (in words)” value [6] is on record?
**A.** The value was “does not inhibit”.

**Q.** What about the “COX-1 inhibition (in words)” value [4] of the same molecule?
**A.** The value was “does not inhibit”.

**Q.** And the “inhibition of tumors (in words)” value [5]?
**A.** The value was “exhibits inhibition of tumors”.

**Q.** For “Indomethacin-N-2-(2-L-methoxycarbonylethyl) amide [Compound 25]”, which IC50 ([3]; human COX-2 (66 nM), inhibitor 20 min, then 1-14C-AA (50 μM) at 37° C. for 30 sec, duplicate) is on record?
**A.** Its IC50 is 0.4 µM.

**Q.** Which “tumor growth (in words)” value [7] does the source give for “Indomethacin-N-(2-phenethyl) amide [Compound 11]” here?
**A.** Its value is “significantly inhibited tumor growth”.

**Q.** And the “tumor vol. cm^3” value ([7]; day of explant 22)?
**A.** Its value is 0.10 cm^3.

**Q.** What about the “tumor vol. cm^3” value ([7]; day of explant 25) of the same molecule?
**A.** The value was 0.11 cm^3.

**Q.** What about the “tumor vol. cm^3” value ([7]; day of explant 27) of the same molecule?
**A.** The value was 0.13 cm^3.

**Q.** And the “tumor vol. cm^3” value ([7]; day of explant 29)?
**A.** The value was 0.14 cm^3.

**Q.** And the “tumor vol. cm^3” value ([7]; day of explant 31)?
**A.** The value was 0.17 cm^3.
